Reference: patent US20070010484A1, “Method for treating or inhibiting the effects of injuries or diseases that result in neuronal degeneration and method for promoting neurogenesis” (YEDA RESEARCH AND DEVELOPMENT CO. LTD., priority 2003, published 2007)

Tests used:
PC12 cells [1] = assay: Neurite outgrowth assay in NGF-stimulated PC12 cells; assay type: cell-based, rat; conditions: PC12 cells, NGF 10 ng/ml
Experimental: PC12 cell line: Rat pheochromocytoma (PC12) cells were cultured in DMEM containing 8% horse serum and either 8% FCS (culture medium) or 1% FCS (differentiation medium), and antibiotics. For assays of neurite outgrowth, the cells were plated (10^5 cell/well) on 13-mm glass coverslips, precoated with collagen (500 μg/ml) in 24-well plates. Neurite outgrowth assays: PC12 cells were cultured for 24-72 h while being stimulated with 10 ng/ml NGF, with or without CSPG-DSs. Cell morphology was visualized under a phase-contrast microscope and neurite lengths were measured using ImagePro. At least 200 cells were measured for each condition.

[2] = system: retinal ganglion cells (RGCs); assay: Experimental autoimmune uveitis (EAU), RGC survival; assay type: in vivo; conditions: R16-immunized Lewis rats, i.p. on days 3, 6, 9, 12 and 17; counted 3 weeks after immunization; mean±SD
Experimental: Induction of experimental autoimmune uveitis. To induce experimental autoimmune uveitis (EAU), Lewis rats were immunized with R16 (30 μg), a peptide derived from an ocular antigen IRBP emulsified in CFA containing 2.5 mg/ml M. tuberculosis. A total volume of 100 μl was injected s.c. into each rat at the root of the tail. Rats were then divided into three groups. On days 3, 6, 9, 12 and 17 after immunization the rats in the first group were injected i.p. with CSPG-DS (15 μg/rat), and rats in the second group were injected i.p. with methylprednisolone (MP. 30 mg/kg; Solu-Medrol, 125 mg/ml, Pharmacia & Upjohn, Puurs, Belgium). Rats in third group were left untreated.

PC12 cells [3] = assay: LPA-induced neurite retraction in differentiated PC12 cells; assay type: cell-based, rat; conditions: NGF-differentiated PC12 cells, LPA 1 μg/ml, 20 min
Experimental: PC12 cell line: Rat pheochromocytoma (PC12) cells were cultured in DMEM containing 8% horse serum and either 8% FCS (culture medium) or 1% FCS (differentiation medium), and antibiotics. For assays of neurite outgrowth, the cells were plated (10^5 cell/well) on 13-mm glass coverslips, precoated with collagen (500 μg/ml) in 24-well plates. Treatment of PC12 cells with lysophosphatidic acid (LPA). PC12 cells were placed and were differentiated for 3 days in the presence of 100 ng/ml NGF, in collagen-precoated culture dishes (Corning). […] The cells were then fixed with 4% paraformaldehyde (PFA) and analyzed by Nomarski microscopy. The longest neurite of each cell was measured and the results are expressed as their mean±SEM.

CC(=O)N[C@H]1C(O)O[C@H](CO)[C@H](O)[C@@H]1O[C@@H]1OC(C(=O)O)=C[C@H](O)[C@H]1O (stereo partly drawn) [Di-0S, 2-acetamido-2-deoxy-3-O-(β-D-gluco-4-enepyranosyluronic acid)-D-galactose]
effect on neurite outgrowth (PC12 cells [1]): no effect

C[C@H]1C[C@@H]2[C@H]([C@@H](O)C[C@@]3(C)[C@H]2CC[C@]3(O)C(=O)COC(=O)CCC(=O)[O-])[C@@]2(C)C=CC(=O)C=C12.[Na+] [MP, reference compound]
RGC loss relative to normal rats [2]: 59±1.6%

lysophosphatidic acid [LPA, reference compound]
neurite collapse by LPA alone (PC12 cells [3]): induced neurite collapse
